According to article PMC4281142, “Fomiroid A, a Novel Compound from the Mushroom Fomitopsis nigra, Inhibits NPC1L1-Mediated Cholesterol Uptake via a Mode of Action Distinct from That of Ezetimibe” (PLoS ONE, 2014):

Tests used:
NPC1L1 (rNPC1L1) [1] = molecular target: T1, NPC1L1 (rNPC1L1) (Rattus norvegicus, UniProt Q6T3U3); assay: competitive radioligand binding, [3H]ezetimibe glucuronide, HEK293/rNPC1L1 membranes
T1 construct: rat NPC1L1 (GenBank AY437867), membranes from stably expressing HEK293 cells

NPC1L1 (rNPC1L1) [2] = molecular target: T1, NPC1L1 (rNPC1L1); assay: competitive radioligand binding, [3H]ezetimibe glucuronide, HEK293/rNPC1L1 membranes (two-site fit; low-affinity site […])

Compound	IC50 (NPC1L1 (rNPC1L1) [1])	IC50 (NPC1L1 (rNPC1L1) [2])
O=C1[C@H](CC[C@H](O)c2ccc(F)cc2)[C@@H](c2ccc(O)cc2)N1c1ccc(F)cc1 [ezetimibe]	332 ± 4.2 nM	
CC(C)=CCCC(CO)C1CC(O)C2(C)C3=C(CCC12C)C1(C)CCC(=O)C(C)(C)C1CC3 (centres unmarked) [fomiroid A, 15, 21-dihydroxylanosta-8, 24-dien-3-one]		4830 ± 200 nM
